# Values quoted from earlier work as cited in US20250114388A1, “ACTIVE PHARMACEUTICAL INGREDIENT COMPOSITIONS AND PREPARATION AND USES THEREOF” (Dr. Anti Fungus, LLC, priority 2023, published 2025).
# *1 amine or outer side, *2 acyl side, *3 side chain or, on linkers, in order; H or OH if unused. Where a SMILES comes first, the peptide text is derived from it. Bridges are numbered along the chain shown (N, C = ends). [ ]: non-standard residue; d: D form. The star is where a group is joined. pTerphenylCO(4''-OnC5H11) = CCCCCOc1ccc(-c2ccc(-c3ccc(C(=O)*)cc3)cc2)cc1; Orn(4R-OH,5R-OH) = O=C([C@H](C[C@@H](O)[C@@H](O)N[*:3])N[*:1])[*:2]; hTyr(3S-OH,4S-OH) = N[C@H](C(=O)O)[C@H](O)[C@@H](O)c1ccc(O)cc1; Pro(3S-OH,4S-Me) = C[C@H]1CN[C@H](C(=O)O)[C@H]1O; Hyp = O=C(O)[C@@H]1C[C@@H](O)CN1
row,SMILES,solubility in water
1,C[C@@H]1[C@H](O)[C@@H](C)/C=C/C=C/C=C/C=C/C=C/C=C/C=C/[C@H](O[C@@H]2O[C@H](C)[C@@H](O)[C@H](N)[C@@H]2O)C[C@@H]2O[C@](O)(C[C@@H](O)C[C@@H](O)[C@H](O)CC[C@@H](O)C[C@@H](O)CC(=O)O[C@H]1C)C[C@H](O)[C@H]2C(=O)O [amphotericin B],insoluble
2,"CCCCCOc1ccc(-c2ccc(-c3ccc(C(=O)N[C@H]4C[C@@H](O)[C@@H](O)NC(=O)[C@@H]5[C@@H](O)[C@@H](C)CN5C(=O)[C@H]([C@@H](C)O)NC(=O)[C@H]([C@H](O)[C@@H](O)c5ccc(O)cc5)NC(=O)[C@@H]5C[C@@H](O)CN5C(=O)[C@H]([C@@H](C)O)NC4=O)cc3)cc2)cc1 [anidulafungine] ({pTerphenylCO(4''-OnC5H11)}-[Orn(4R-OH,5R-OH)]T[Hyp][hTyr(3S-OH,4S-OH)]T[Pro(3S-OH,4S-Me)]; lactam 1-C)",insoluble
3,Clc1ccccc1C(c1ccccc1)(c1ccccc1)n1ccnc1 [clotrimazole],insoluble
4,Clc1ccc(COC(Cn2ccnc2)c2ccc(Cl)cc2Cl)cc1 (centres unmarked) [econazole],insoluble
5,OC(Cn1cncn1)(Cn1cncn1)c1ccc(F)cc1F [fluconazole],sparingly soluble
6,CCC(C)n1ncn(-c2ccc(N3CCN(c4ccc(OCC5COC(Cn6cncn6)(c6ccc(Cl)cc6Cl)O5)cc4)CC3)cc2)c1=O (centres unmarked) [itraconazole],insoluble
7,CC(=O)N1CCN(c2ccc(OCC3COC(Cn4ccnc4)(c4ccc(Cl)cc4Cl)O3)cc2)CC1 (centres unmarked) [ketoconazole],insoluble
8,Clc1ccc(COC(Cn2ccnc2)c2ccc(Cl)cc2Cl)c(Cl)c1 (centres unmarked) [miconazole],insoluble
9,C[C@@H]1[C@H](O)[C@@H](C)/C=C/C=C/CC/C=C/C=C/C=C/C=C/C(O[C@H]2O[C@H](C)[C@@H](O)[C@H](N)[C@@H]2O)CC2O[C@](O)(CC(O)C(O)CCC(O)CC(O)CC(O)CC(=O)O[C@H]1C)CC(O)C2C(=O)O (some centres unmarked) [nystatin],sparingly soluble
10,CN(C/C=C/C#CC(C)(C)C)Cc1cccc2ccccc12 [terbinafine],sparingly soluble
11,Cc1cccc(N(C)C(=S)Oc2ccc3ccccc3c2)c1 [tolnaftate],insoluble
